Reference: ChEMBL document CHEMBL5465560, “Selectivity Literature for EUbOPEN Chemogenomic Library” (2024)

Key:
[1] = target: Dual specificity tyrosine-phosphorylation-regulated kinase 1A (Homo sapiens, UniProt Q13627); assay: Selectivity interaction (Kinase panel (literature)) EUB0001199aCl DYRK1A; conditions: at 1 µM
[2] = target: Dual specificity mitogen-activated protein kinase kinase 1 (Homo sapiens, UniProt Q02750); assay: Selectivity interaction (Enzymatic assay) EUB0001199aCl MAP2K1
[3] = target: Citron Rho-interacting kinase (Homo sapiens) (UniProt O14578); assay: Selectivity interaction (KinomeScan (DiscoverX)) EUB0000666a CIT; conditions: at 10 µM
Citron Rho-interacting kinase (Homo sapiens), sequence (O14578 whole entry): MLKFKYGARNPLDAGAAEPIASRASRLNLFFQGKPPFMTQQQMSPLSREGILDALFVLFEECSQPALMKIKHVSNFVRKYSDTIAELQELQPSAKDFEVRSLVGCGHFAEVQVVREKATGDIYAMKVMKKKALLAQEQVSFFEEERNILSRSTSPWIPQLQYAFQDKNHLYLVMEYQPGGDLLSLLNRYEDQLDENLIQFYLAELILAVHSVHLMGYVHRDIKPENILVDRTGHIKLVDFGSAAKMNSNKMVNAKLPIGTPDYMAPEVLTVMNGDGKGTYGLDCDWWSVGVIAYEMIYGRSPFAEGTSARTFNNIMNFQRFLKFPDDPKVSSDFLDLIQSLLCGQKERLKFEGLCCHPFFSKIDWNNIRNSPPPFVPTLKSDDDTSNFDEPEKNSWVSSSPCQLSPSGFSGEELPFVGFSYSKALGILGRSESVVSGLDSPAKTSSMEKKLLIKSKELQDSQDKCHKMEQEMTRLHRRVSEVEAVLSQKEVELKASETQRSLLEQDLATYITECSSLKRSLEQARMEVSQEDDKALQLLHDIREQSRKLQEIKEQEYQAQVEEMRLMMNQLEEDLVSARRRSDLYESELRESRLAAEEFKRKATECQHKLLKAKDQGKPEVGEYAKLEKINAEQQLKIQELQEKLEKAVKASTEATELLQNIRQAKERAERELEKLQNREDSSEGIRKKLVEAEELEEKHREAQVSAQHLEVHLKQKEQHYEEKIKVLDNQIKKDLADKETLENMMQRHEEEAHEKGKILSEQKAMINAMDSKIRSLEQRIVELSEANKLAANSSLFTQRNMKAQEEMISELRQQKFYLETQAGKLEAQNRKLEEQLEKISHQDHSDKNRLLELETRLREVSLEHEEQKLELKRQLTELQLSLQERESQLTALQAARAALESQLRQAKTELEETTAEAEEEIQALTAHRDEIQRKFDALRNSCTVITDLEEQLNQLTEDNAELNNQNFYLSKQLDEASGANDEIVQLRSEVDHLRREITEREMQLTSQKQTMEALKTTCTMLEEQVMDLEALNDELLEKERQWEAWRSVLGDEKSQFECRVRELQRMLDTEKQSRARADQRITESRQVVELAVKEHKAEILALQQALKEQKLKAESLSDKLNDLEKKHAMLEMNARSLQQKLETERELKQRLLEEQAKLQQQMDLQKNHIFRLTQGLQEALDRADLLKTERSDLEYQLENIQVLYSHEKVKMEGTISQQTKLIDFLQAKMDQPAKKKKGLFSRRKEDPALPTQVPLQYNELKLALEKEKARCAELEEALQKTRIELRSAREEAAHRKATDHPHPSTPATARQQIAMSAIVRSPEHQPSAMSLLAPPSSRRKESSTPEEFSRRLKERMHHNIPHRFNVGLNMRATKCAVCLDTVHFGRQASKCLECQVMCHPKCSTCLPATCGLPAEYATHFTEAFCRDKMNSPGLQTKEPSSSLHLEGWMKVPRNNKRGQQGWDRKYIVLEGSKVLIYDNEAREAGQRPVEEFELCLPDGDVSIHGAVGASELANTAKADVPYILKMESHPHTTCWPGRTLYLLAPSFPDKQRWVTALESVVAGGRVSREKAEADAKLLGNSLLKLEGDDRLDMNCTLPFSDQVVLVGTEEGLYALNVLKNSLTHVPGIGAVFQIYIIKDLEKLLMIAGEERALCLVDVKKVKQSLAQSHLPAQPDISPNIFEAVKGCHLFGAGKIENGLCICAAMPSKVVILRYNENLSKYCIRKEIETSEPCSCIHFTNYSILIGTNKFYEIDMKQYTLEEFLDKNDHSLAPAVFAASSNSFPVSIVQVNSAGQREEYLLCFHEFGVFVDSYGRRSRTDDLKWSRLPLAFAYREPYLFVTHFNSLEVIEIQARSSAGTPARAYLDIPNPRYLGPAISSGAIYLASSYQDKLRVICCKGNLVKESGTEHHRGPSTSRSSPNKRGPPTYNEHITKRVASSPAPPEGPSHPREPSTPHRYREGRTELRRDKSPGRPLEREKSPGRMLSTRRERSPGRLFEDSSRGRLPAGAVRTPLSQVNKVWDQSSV

[4] = Selectivity interaction (NMDA Channel site assay : rat brain cortex ) EUB0000877a GRIN1
[5] = target: T1, Serine/threonine-protein kinase LATS1 (Homo sapiens) (UniProt O95835); assay: Selectivity interaction (ActivX KiNativ screen (kinase selectivity in THP-1 cell lysates)) EUB0000639a LATS1; type: subcellular; conditions: lysate, at 0.01 µM
T1 sequence (whole entry): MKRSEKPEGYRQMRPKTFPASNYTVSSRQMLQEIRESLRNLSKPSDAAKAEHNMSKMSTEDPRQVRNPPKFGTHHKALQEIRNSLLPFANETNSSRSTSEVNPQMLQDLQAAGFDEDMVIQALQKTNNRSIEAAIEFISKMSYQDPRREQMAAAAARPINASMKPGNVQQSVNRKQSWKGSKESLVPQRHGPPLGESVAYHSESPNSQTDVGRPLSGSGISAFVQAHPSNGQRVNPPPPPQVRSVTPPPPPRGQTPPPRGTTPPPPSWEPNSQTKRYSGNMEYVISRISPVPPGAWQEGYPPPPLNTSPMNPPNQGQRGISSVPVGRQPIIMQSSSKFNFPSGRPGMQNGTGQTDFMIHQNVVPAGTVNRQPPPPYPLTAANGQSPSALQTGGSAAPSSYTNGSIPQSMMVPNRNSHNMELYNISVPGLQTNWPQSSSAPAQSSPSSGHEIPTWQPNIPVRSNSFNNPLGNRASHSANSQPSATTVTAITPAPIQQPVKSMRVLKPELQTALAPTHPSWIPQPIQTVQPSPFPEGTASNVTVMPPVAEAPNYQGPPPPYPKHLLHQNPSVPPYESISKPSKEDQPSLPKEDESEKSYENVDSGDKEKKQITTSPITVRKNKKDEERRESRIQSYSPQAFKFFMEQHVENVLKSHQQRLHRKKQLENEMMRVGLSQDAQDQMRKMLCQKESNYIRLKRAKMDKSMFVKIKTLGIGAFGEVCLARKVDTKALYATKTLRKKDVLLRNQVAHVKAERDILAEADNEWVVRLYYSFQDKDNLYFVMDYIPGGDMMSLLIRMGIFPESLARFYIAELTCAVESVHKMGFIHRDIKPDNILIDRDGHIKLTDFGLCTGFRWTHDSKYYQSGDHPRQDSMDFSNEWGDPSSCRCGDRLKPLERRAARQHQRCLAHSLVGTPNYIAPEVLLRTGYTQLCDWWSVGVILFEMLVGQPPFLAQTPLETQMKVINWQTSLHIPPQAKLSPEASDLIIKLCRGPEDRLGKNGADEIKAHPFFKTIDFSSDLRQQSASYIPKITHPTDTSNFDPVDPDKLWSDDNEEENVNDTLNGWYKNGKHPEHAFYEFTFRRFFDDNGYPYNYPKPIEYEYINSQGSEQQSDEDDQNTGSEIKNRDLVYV

[6] = target: Interferon-induced, double-stranded RNA-activated protein kinase (Homo sapiens) (UniProt P19525); assay: Selectivity interaction (ActivX KiNativ screen (kinase selectivity in THP-1 cell lysates)) EUB0000639a EIF2AK2; type: subcellular; conditions: lysate, at 1 µM
Interferon-induced, double-stranded RNA-activated protein kinase (Homo sapiens), sequence (P19525 whole entry): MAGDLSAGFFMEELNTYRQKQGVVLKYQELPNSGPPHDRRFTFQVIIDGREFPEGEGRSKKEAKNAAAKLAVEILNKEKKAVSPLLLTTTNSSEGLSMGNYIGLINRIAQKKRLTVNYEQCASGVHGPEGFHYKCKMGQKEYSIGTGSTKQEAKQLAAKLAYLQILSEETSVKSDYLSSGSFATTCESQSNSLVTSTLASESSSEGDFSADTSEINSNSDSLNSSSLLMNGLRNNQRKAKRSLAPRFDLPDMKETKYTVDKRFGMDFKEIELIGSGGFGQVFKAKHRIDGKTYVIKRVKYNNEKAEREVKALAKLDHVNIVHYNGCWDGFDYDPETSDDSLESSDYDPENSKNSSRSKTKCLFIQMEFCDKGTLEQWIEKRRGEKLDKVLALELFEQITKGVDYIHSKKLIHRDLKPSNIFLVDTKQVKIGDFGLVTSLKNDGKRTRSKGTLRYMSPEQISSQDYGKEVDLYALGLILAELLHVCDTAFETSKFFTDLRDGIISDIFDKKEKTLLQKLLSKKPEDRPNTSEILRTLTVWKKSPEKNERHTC

[7] = target: T2, Ribosomal protein S6 kinase delta-1 (Homo sapiens) (UniProt Q96S38); assay: Selectivity interaction (ActivX KiNativ screen (ex vivo kinase selectivity in human PBMCs)) EUB0001619a RPS6KC1; type: cell-based; conditions: PBMC, at 1 µM
T2 sequence (whole entry): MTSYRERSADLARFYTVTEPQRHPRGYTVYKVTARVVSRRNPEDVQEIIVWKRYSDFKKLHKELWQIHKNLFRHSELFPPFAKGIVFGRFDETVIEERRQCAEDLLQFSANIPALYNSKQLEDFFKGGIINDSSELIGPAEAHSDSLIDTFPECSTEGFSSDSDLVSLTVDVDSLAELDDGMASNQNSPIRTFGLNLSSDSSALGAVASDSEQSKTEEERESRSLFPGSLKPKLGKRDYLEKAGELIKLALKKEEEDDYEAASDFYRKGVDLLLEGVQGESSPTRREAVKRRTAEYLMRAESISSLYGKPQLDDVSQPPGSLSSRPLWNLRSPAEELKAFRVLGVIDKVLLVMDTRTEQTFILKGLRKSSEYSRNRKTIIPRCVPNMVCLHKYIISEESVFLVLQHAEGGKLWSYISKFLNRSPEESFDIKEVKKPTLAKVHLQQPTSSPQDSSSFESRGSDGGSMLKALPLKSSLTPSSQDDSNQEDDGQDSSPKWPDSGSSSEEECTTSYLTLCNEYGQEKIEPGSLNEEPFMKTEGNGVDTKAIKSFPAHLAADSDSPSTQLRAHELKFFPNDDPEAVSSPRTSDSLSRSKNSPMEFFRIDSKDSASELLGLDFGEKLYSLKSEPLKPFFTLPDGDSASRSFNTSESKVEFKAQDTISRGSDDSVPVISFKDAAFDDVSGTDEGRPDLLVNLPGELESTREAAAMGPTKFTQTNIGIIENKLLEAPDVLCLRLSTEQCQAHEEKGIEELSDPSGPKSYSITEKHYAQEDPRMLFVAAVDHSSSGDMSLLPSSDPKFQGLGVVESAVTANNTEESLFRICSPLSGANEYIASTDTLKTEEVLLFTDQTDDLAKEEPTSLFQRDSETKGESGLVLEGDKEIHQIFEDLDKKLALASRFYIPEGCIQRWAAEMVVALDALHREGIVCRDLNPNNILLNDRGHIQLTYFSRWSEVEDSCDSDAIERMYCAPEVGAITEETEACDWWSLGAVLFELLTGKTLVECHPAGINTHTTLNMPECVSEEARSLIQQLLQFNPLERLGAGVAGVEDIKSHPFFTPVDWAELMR

[8] = target: Glycogen synthase kinase-3 alpha (Homo sapiens, UniProt P49840); assay: Selectivity interaction (Rxn Biology Kinase assay) EUB0001632a GSK3A; conditions: at 10 µM
Glycogen synthase kinase-3 alpha, sequence (P49840 2-483 limits assumed): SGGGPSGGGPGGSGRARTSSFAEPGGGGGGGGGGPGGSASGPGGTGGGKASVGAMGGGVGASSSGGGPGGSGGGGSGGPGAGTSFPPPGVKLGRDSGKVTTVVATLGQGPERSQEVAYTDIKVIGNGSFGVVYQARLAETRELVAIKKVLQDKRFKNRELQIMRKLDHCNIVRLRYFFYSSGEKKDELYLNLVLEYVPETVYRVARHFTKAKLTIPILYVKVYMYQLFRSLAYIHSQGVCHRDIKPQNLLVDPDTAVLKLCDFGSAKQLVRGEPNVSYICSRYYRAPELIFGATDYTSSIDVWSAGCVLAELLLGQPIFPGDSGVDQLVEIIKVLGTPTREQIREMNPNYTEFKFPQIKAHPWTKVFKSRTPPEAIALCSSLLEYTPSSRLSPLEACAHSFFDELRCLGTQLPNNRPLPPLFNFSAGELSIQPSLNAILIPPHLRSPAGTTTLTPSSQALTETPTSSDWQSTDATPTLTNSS

Dual specificity mitogen-activated protein kinase kinase 1, sequence (Q02750 whole entry): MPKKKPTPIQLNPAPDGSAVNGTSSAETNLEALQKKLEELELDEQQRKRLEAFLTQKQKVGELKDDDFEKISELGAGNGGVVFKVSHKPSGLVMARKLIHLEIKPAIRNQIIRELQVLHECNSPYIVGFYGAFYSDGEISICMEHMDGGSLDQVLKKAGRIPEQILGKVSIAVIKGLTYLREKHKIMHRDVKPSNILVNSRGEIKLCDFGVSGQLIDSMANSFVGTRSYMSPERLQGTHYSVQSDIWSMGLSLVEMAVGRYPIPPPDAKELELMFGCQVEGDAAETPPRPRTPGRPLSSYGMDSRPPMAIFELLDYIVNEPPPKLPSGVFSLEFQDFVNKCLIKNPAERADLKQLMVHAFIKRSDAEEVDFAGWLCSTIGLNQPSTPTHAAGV

## CN1Cc2nccc(-c3cn(C)nc3-c3ccc(F)cc3)c2C1=O
[1]
  % of inhibition: -3%
[2]
  IC50: 10.2 µM

## O=C(NOC[C@H](O)CO)c1ccc(F)c(F)c1Nc1ccc(I)cc1F
[3]
  % of control: 100%

## CCC(=O)N1CC[C@H](Nc2ncnc3c2CN(c2cnc(OC)c(C(F)(F)F)c2)CC3)C1 [LENIOLISIB]
[4]
  IC50: > 30 µM

## CC[C@@H]1[C@H](F)C(=O)N[C@@H]1COc1nccc2cc(C(N)=O)c(OC)cc12 [ZIMLOVISERTIB]
[5]
  % of inhibition: 15.8%
[6]
  % of inhibition: -3.7%

## N#Cc1cccc(-c2c[nH]c3ncnc(N4CCOCC4)c23)c1
[7]
  % of inhibition: -2%

## Cn1cc(-n2cnc3c(NCc4nc5cc(Cl)c(Cl)cc5[nH]4)nc(N4CCOCC4)nc32)cn1
[8]
  % of inhibition: 90.6%
